# Read-outs that look alike come from different tables or passages of the source.
# Experiments:
# Assay in all cases: MIC, broth micro-dilution technique (CLSI)
# [1] = test system: MRSA COL (NRS100); format: cell-based, Staphylococcus aureus; conditions: for MIC: Staphylococcus aureus, 22 h, read-out: MIC (μg/mL) (COL)
# Outline: (§1)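 CLSI broth microdilution in cation-adjusted Mueller Hinton broth with 0.002% v/v Tween-80. Compounds were serially 2-fold diluted over 10 concentrations from 64 μg/ml, or from 4 μg/mL in a modified protocol; inoculum at final OD600 0.0005, incubated 35° C for 22 hours.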
# [2] = test system: Escherichia coli MC4100 harboring the IMP4213; format: cell-based; conditions: 35° C., 22 hours; for MIC: Escherichia coli, 22 h; for MIC (μg/mL) E. coli: Table 2 modified protocol: serial 2-fold dilutions starting from 4 μg/mL
# Outline: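 MICs determined after 35 °C, 22 h incubation of bacteria (final OD600 0.0005) with 10-point 2-fold compound series. Series topped at 64 μg/ml in the standard protocol or 4 μg/mL in the modified one. Medium: cation-adjusted Mueller Hinton broth plus 0.002% Tween-80. E. coli MC4100 imp4213 has a permeabilized outer membrane.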
# [3] = test system: Methicillin Resistant Staphylococcus aureus strain USA 300 (NRS384); format: cell-based; conditions: for MIC: Staphylococcus aureus, 22 h, read-out: MIC (μg/mL) S. aureus
# Outline: as §1
# [4] = read-out: MIC (μg/mL) E. coli, Table 1 protocol: serial 2-fold dilutions starting from 64 μg/ml
# [5] = Table 1 protocol: serial 2-fold dilutions starting from 64 μg/ml, 35° C., 22 hours
# [6] = Table 2 modified protocol: serial 2-fold dilutions starting from 4 μg/mL, 35° C., 22 hours
# [7] = read-out: MIC (μg/mL) E. coli, Table 2 modified protocol: serial 2-fold dilutions starting from 4 μg/mL
compound,measurement,setting,value
COC(=O)C(=O)[C@H](C)NC(=O)[C@@H]1Cc2ccc(O)c(c2)-c2cc(ccc2O)[C@H](N(C)C(=O)[C@H](CCCCN)NC(=O)c2ccc(-c3ccc(Cl)cc3)cc2)C(=O)N[C@@H](C)C(=O)N1 [Compound 139],MIC,[1],4 µg/mL
same,MIC,[2]; [4],8 µg/mL
same,MIC,[3],11 µg/mL
CCCCCCCCCCS(=O)(=O)N[C@@H](CCCCN)C(=O)N(C)[C@@H]1C(=O)N[C@@H](C)C(=O)N[C@H](C(=O)O)Cc2ccc(O)c(c2)-c2cc1ccc2O [Compound 222],MIC,[1],3 µg/mL
same,MIC,[2]; [4],> 64 µg/mL
same,MIC,[3],16 µg/mL
CC(=O)[C@H](C)NC(=O)[C@@H]1Cc2ccc(O)c(c2)-c2cc(ccc2OCCN2CCN(C)CC2)[C@H](N(C)C(=O)[C@H](CCCCN)NC(=O)c2ccc(-c3ccc(Cl)cc3)cc2)C(=O)N[C@@H](C)C(=O)N1 [Compound 332],MIC,[1]; [5],8 µg/mL
same,MIC,[2]; [4],64 µg/mL
same,MIC,[3]; [5],64 µg/mL
CCCCCCCCCC(=O)NCC(=O)N(C)[C@@H]1C(=O)N[C@@H](C)C(=O)N[C@H](C(=O)N[C@@H](C)C(C)=O)Cc2ccc(OCCN)c(c2)-c2cc1ccc2OCCN.O=CO [Compound 267],MIC (μg/mL) (COL),[1]; [6],0.5 µg/mL
same,MIC (μg/mL) E. coli,[2],>4 µg/mL
same,MIC (μg/mL) S. aureus,[3]; [6],1.5 µg/mL
CCCCCCCCCCCCS(=O)(=O)N[C@@H](CCCCN)C(=O)N(C)[C@@H]1C(=O)N[C@@H](C)C(=O)N[C@H](C(=O)N[C@@H](C)C(C)=O)Cc2ccc(O)c(c2)-c2cc1ccc2O [Compound 221],MIC,[1]; [5],0.13 µg/mL
same,MIC,[2]; [4],45 µg/mL
same,MIC,[3]; [5],0.5 µg/mL
C[C@H](NC(=O)[C@@H]1Cc2ccc(O)c(c2)-c2cc(ccc2O)[C@H](N(C)C(=O)[C@H](CCCCN)NC(=O)c2ccc(-c3ccc(Cl)cc3)cc2)C(=O)N[C@@H](C)C(=O)N1)C(=O)CF [Compound 247],MIC,[1]; [6],1 µg/mL
same,MIC,[2]; [7],> 4 µg/mL
same,MIC,[3]; [6],2 µg/mL
CNCCNCCOc1ccc2cc1-c1cc(ccc1O)C[C@@H](C(=O)N[C@@H](C)C(C)=O)NC(=O)[C@H](C)NC(=O)[C@H]2N(C)C(=O)[C@H](CCCCN)NC(=O)c1ccc(-c2ccc(Cl)cc2)cc1 [Compound 204],MIC,[1]; [5],1 µg/mL
same,MIC,[2]; [4],8 µg/mL
same,MIC,[3]; [5],11 µg/mL
CCCCCCCCCCCCCC(=O)N(C)[C@@H]1C(=O)N[C@@H](C)C(=O)N[C@H](C(=O)O)Cc2ccc(OCCN)c(c2)-c2cc1ccc2OCCN [Compound 291],MIC,[1],4 µg/mL
same,MIC,[2]; [4],8 µg/mL
same,MIC,[3],8 µg/mL
CCCCCCCCCCNCCS(=O)(=O)N[C@@H](CCCN)C(=O)N(C)[C@@H]1C(=O)N[C@@H](C)C(=O)N[C@H](C(=O)N[C@@H](C)C(C)=O)Cc2ccc(O)c(c2)-c2cc1ccc2O [Compound 219],MIC,[1],0.13 µg/mL
same,MIC,[2]; [4],> 64 µg/mL
same,MIC,[3],0.35 µg/mL
CCCCCCCCCCNCC(=O)N(C)[C@@H]1C(=O)N[C@@H](C)C(=O)N[C@H](C(=O)N[C@@H](C)C(C)=O)Cc2ccc(OCCN)c(c2)-c2cc1ccc2OCCN.O=CO [Compound 269],MIC (μg/mL) (COL),[1]; [6],0.13 µg/mL
same,MIC (μg/mL) E. coli,[2],>4 µg/mL
same,MIC (μg/mL) S. aureus,[3]; [6],0.38 µg/mL
CC(=O)[C@H](C)NC(=O)[C@@H]1Cc2ccc(OCCO)c(c2)-c2cc(ccc2OCCN)[C@H](N(C)C(=O)[C@H](CCCCN)NC(=O)c2ccc(-c3ccc(Cl)cc3)cc2)C(=O)N[C@@H](C)C(=O)N1 [Compound 330],MIC,[1],1 µg/mL
same,MIC,[2]; [7],> 4 µg/mL
same,MIC,[3],3 µg/mL
CCCCCCCCCCNCCC(=O)N[C@@H](CCCCN)C(=O)N(C)[C@@H]1C(=O)N[C@@H](C)C(=O)N[C@H](C(=O)O)Cc2ccc(O)c(c2)-c2cc1ccc2OCCN [Compound 113],MIC,[1],2 µg/mL
same,MIC,[2]; [4],25 µg/mL
same,MIC,[3],9.5 µg/mL
CNCCCNCCOc1ccc2cc1-c1cc(ccc1O)C[C@@H](C(=O)N[C@@H](C)C(C)=O)NC(=O)[C@H](C)NC(=O)[C@H]2N(C)C(=O)[C@H](CCCCN)NC(=O)c1ccc(-c2ccc(Cl)cc2)cc1 [Compound 206],MIC,[1]; [5],0.19 µg/mL
same,MIC,[2]; [4],4 µg/mL
same,MIC,[3]; [5],4 µg/mL
CC(=O)[C@H](C)NC(=O)[C@@H]1Cc2ccc(OCC(=O)O)c(c2)-c2cc(ccc2OCCN)[C@H](N(C)C(=O)[C@H](CCCCN)NC(=O)c2ccc(-c3ccc(Cl)cc3)cc2)C(=O)N[C@@H](C)C(=O)N1 [Compound 208],MIC,[1]; [5],6 µg/mL
same,MIC,[2]; [4],16 µg/mL
same,MIC,[3]; [5],23 µg/mL
C[C@@H]1NC(=O)[C@@H](N(C)C(=O)[C@H](CCCCN)NC(=O)c2ccc(-c3ccc(Cl)cc3)cc2)c2ccc(OCCN)c(c2)-c2cc(ccc2OCCN)C[C@@H](C(=O)O)NC1=O [Compound 289],MIC,[1],0.5 µg/mL
same,MIC,[2]; [4],0.5 µg/mL
same,MIC,[3],2 µg/mL
C[C@H](NC(=O)[C@@H]1Cc2ccc(O)c(c2)-c2cc(ccc2O)[C@H](N(C)C(=O)[C@H](CCCCN)NC(=O)c2ccc(-c3ccc(Cl)cc3)cc2)C(=O)N[C@@H](C)C(=O)N1)C(=O)CC(N)=O [Compound 189],MIC,[1]; [5],2 µg/mL
same,MIC,[2]; [4],32 µg/mL
same,MIC,[3]; [5],5.7 µg/mL
CCCCc1ccc(-c2ccc(C(=O)N[C@@H](CCCCN)C(=O)N(C)[C@@H]3C(=O)N[C@@H](C)C(=O)N[C@H](C(=O)O)Cc4ccc(OCCN)c(c4)-c4cc3ccc4OCCN)cc2)cc1 [Compound 294],MIC,[1],0.063 µg/mL
same,MIC,[2]; [4],0.063 µg/mL
same,MIC,[3],0.15 µg/mL
C[C@H](NC(=O)[C@@H]1Cc2ccc(O)c(c2)-c2cc(ccc2O)[C@H](N(C)C(=O)[C@H](CCCCN)NC(=O)c2ccc(-c3ccc(Cl)cc3)cc2)C(=O)N[C@@H](C)C(=O)N1)C(=O)CN=[N+]=[N-] [Compound 255],MIC,[1],3 µg/mL
same,MIC,[2]; [4],> 64 µg/mL
same,MIC,[3],12 µg/mL
CCCCCCCCc1ccc(C(=O)N[C@@H](CCCN)C(=O)N(C)[C@@H]2C(=O)N[C@@H](C)C(=O)N[C@H](C(=O)NCB(O)O)Cc3ccc(OCCN)c(c3)-c3cc2ccc3OCCN)cc1 [Compound 326],MIC,[1]; [6],0.13 µg/mL
same,MIC,[2]; [7],0.19 µg/mL
same,MIC,[3]; [6],0.25 µg/mL
C[C@H](NC(=O)[C@@H]1Cc2ccc(O)c(c2)-c2cc(ccc2O)[C@H](N(C)C(=O)[C@H](CCCCN)NC(=O)c2ccc(-c3ccc(Cl)cc3)cc2)C(=O)N[C@@H](C)C(=O)N1)C(=O)CO [Compound 124],MIC,[1],0.5 µg/mL
same,MIC,[2]; [4],16 µg/mL
same,MIC,[3],1 µg/mL
C[C@@H]1NC(=O)[C@@H](N(C)C(=O)[C@H](CCCCN)NC(=O)c2ccc(-c3ccc(Cl)cc3)cc2)c2ccc(O)c(c2)-c2cc(ccc2O)C[C@@H](C(=O)N[C@@H](CO)C(=O)N(C)[C@@H](C)C(N)=O)NC1=O [Compound 199],MIC,[1]; [5],2 µg/mL
same,MIC,[2]; [4],64 µg/mL
same,MIC,[3]; [5],10 µg/mL
C[C@H](NC(=O)[C@@H]1Cc2ccc(O)c(c2)-c2cc(ccc2O)[C@H](N(C)C(=O)[C@H](CCCCN)NC(=O)c2ccc(-c3ccc(Cl)cc3)cc2)C(=O)N[C@@H](C)C(=O)N1)C(=O)N[C@H]1CCNC1=O [Compound 135],MIC,[1]; [5],32 µg/mL
same,MIC,[2]; [4],64 µg/mL
same,MIC,[3]; [5],> 64 µg/mL
C[C@H](NC(=O)[C@@H]1Cc2ccc(O)c(c2)-c2cc(ccc2O)[C@H](N(C)C(=O)[C@H](CCCCN)NC(=O)c2ccc(-c3ccc(Cl)cc3)cc2)C(=O)N[C@@H](C)C(=O)N1)C(=O)CCc1cc[nH]n1 [Compound 130],MIC,[1]; [5],8 µg/mL
same,MIC,[2]; [4],> 64 µg/mL
same,MIC,[3]; [5],16 µg/mL
C[C@@H]1NC(=O)[C@@H](N(C)C(=O)[C@H](CCCCN)NC(=O)Cc2ccc(-c3ccc(Cl)cc3)cc2)c2ccc(OCCN)c(c2)-c2cc(ccc2OCCN)C[C@@H](C(=O)O)NC1=O [Compound 286],MIC,[1],1.5 µg/mL
same,MIC,[2]; [7],4 µg/mL
same,MIC,[3],4 µg/mL
C[C@@H]1NC(=O)[C@@H](N(C)C(=O)[C@H](CCCCN)NC(=O)c2ccc(-c3ccc(Cl)cc3)cc2)c2ccc(O)c(c2)-c2cc(ccc2O)C[C@@H](C(=O)N[C@@H](C)C(=O)N(C)[C@@H]2CCNC2=O)NC1=O [Compound 138],MIC,[1],17 µg/mL
same,MIC,[2]; [4],64 µg/mL
same,MIC,[3],32 µg/mL
COCC(=O)[C@H](C)NC(=O)[C@@H]1Cc2ccc(O)c(c2)-c2cc(ccc2OCCN)[C@H](N(C)C(=O)[C@H](CCCCN)NC(=O)c2ccc(-c3ccc(Cl)cc3)cc2)C(=O)N[C@@H](C)C(=O)N1 [Compound 195],MIC,[1]; [5],0.38 µg/mL
same,MIC,[2]; [4],2 µg/mL
same,MIC,[3]; [5],2.8 µg/mL
